In ChEMBL document CHEMBL1159356, “Cytotoxic styrylpyrones from Goniothalamus amuyon” (J Nat Prod, 2003):
Converted amounts (≈) assume the structure as drawn. Numbered stars: 1 amine (or outer) side, 2 acyl side, 3 side chain; on linkers, the order of the positions; unused ones are H or OH. Bridge positions count the residues as written; N and C are the ends. Square brackets hold non-standard residues; d marks the D form. Peptide text beside a SMILES is read from it. I, II: the chains in the order shown. Actinocin(1to9) = Cc1c2oc3c(C)ccc(C(=O)[*:2])c3nc-2c(C(=O)[*:1])c(N)c1=O; NMeV = CN[C@H](C(=O)O)C(C)C; Sar = CNCC(=O)O

Assays:
NUGC = assay: Cytotoxicity against human NUGC cells; assay type: functional, cell-based
[1] = Cytotoxicity against human HONE1 cells; assay type: functional, cell-based

SMILES | IC50 (NUGC) | IC50 [1]
O=C1C=CC[C@H]([C@@H](O)[C@H](Cl)c2ccccc2)O1 [6R,7R,8R-8-CHLOROGONIODIOL] | 31 µg/mL (≈ 123 µM) | 4.87 µg/mL (≈ 19.3 µM)
CO[C@H](c1ccccc1)[C@H](O)[C@H]1CC=CC(=O)O1 [6R,7R,8R-8-METHOXYGONIODIOL] | 168 µg/mL (≈ 675 µM) | 240 µg/mL (≈ 965 µM)
Cc1c2oc3c(C)ccc(C(=O)N[C@@H]4C(=O)N[C@H](C(C)C)C(=O)N5CCC[C@H]5C(=O)N(C)CC(=O)N(C)[C@@H](C(C)C)C(=O)O[C@@H]4C)c3nc-2c(C(=O)N[C@@H]2C(=O)N[C@H](C(C)C)C(=O)N3CCC[C@H]3C(=O)N(C)CC(=O)N(C)[C@@H](C(C)C)C(=O)O[C@@H]2C)c(N)c1=O [DACTINOMYCIN] (I: T[dV]P[Sar][NMeV] / II: T[dV]P[Sar][NMeV]; ester I:1-I:C, II:1-II:C; linker I:N-II:N via Actinocin(1to9)) | 6.61 µg/mL (≈ 5.27 µM) | 4.53 µg/mL (≈ 3.61 µM)
CC(=O)O[C@H]([C@H](O)c1ccccc1)[C@H]1CC=CC(=O)O1 | 4.12 µg/mL (≈ 14.9 µM) | 5.69 µg/mL (≈ 20.6 µM)
CC(=O)O[C@H](c1ccccc1)[C@H](O)[C@H]1CC=CC(=O)O1 | 5.02 µg/mL (≈ 18.2 µM) | 6.09 µg/mL (≈ 22 µM)
O=C1C=CC[C@H]([C@@H]2O[C@H]2c2ccccc2)O1 [GONIOTHALAMIN EPOXIDE] | 32.1 µg/mL (≈ 148 µM) | 36.3 µg/mL (≈ 168 µM)
